Laboratory results as given in patent US9458220B2 (priority 2010, dated 2016).

Experiments:
[1] = Dipeptide half life on IGF1 dipeptide extended (p-NH2-F)A19 analogs in PBS; assay type: physicochemical; settings: Table 12; cleavage of (pNH2-Phe) amide linked dipeptide AibPro from the parent peptide
Method: Accordingly, the IGF1A chain alone was determined to be a good model for the study of pro-drug half life on IGF1 B:A (Y^B16L^B17) analog peptides. […] For simplicity, prodrug half lives were determined using only the IGF1 A chain in the absence of the B chain. The half lives of each propeptide was determined as described in Example 5.
The IGF^B16B17 analog peptide prodrugs were incubated in PBS, pH 7.4 at 37° C. and at predetermined time intervals an aliquot was taken and further degradation was quenched with 0.1% TFA and the aliquot was subjected to analytical HPLC analysis. Peaks a and b, representing the prodrug and active forms of the IGF^B16B17 analog peptide were identified with LC-MS and quantified by integration of peak area an HPLC. FIGS. 9A-9C show the output of an HPLC analysis of the degradation of the IGF^B16B17 analog peptide prodrug: IGF1A(Ala)^6,7,11,20(Aib-Pro-pNH—F)^19. Aliquots were taken at 20 minutes (FIG. 9A), 81 minutes (FIG. 9B) and 120 minutes (FIG. 9C) after beginning the incubation of the prodrug in PBS.

human insulin receptor = target: T1, human insulin receptor (Homo sapiens, UniProt P06213); assay: Insulin receptor competition binding assay (scintillation proximity); settings: Table 9
T1 construct: expressed in transfected cells; plasma membrane fragments
T1 sequence (P06213 28-758 limits assumed): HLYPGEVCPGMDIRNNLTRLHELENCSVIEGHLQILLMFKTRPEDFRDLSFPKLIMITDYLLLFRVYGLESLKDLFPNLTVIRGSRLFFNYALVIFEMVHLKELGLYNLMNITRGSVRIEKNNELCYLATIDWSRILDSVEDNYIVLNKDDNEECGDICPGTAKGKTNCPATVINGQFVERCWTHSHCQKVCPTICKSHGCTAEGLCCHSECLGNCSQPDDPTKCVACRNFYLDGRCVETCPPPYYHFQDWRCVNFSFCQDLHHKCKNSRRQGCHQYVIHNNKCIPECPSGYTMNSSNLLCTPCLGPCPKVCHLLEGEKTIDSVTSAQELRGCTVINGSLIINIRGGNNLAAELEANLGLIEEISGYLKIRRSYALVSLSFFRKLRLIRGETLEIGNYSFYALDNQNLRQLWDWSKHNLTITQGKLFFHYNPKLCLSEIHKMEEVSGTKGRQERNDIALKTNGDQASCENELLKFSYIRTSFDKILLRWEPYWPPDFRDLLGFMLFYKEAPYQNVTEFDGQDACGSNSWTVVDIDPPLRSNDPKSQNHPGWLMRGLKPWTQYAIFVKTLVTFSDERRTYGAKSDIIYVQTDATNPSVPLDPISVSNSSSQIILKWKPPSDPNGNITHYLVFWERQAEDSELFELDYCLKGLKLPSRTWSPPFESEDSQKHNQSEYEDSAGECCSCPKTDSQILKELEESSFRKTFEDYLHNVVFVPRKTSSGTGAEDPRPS
T1 sequence (P06213 763-1382 partner limits assumed): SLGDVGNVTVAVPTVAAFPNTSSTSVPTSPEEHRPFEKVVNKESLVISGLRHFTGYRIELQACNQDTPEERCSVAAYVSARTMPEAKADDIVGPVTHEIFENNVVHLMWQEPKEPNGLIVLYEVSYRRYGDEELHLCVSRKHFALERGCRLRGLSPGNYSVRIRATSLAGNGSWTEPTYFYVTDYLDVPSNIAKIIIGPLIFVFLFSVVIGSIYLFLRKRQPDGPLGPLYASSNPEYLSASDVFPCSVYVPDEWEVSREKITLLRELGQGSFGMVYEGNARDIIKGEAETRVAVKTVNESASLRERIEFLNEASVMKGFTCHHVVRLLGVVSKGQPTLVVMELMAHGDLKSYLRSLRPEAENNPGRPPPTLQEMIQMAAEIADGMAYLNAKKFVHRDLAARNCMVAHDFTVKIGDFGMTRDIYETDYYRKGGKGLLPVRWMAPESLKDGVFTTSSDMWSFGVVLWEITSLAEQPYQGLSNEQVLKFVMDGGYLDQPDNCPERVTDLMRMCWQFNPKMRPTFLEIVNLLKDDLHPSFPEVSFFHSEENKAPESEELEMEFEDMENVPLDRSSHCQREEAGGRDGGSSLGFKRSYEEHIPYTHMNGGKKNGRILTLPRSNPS

human IGF-1 receptor = target: T2, human IGF-1 receptor (Homo sapiens, UniProt P08069); assay: IGF-1 receptor competition binding assay (scintillation proximity); settings: Table 9
T2 construct: expressed in transfected cells; plasma membrane fragments
T2 sequence (P08069 31-736 limits assumed): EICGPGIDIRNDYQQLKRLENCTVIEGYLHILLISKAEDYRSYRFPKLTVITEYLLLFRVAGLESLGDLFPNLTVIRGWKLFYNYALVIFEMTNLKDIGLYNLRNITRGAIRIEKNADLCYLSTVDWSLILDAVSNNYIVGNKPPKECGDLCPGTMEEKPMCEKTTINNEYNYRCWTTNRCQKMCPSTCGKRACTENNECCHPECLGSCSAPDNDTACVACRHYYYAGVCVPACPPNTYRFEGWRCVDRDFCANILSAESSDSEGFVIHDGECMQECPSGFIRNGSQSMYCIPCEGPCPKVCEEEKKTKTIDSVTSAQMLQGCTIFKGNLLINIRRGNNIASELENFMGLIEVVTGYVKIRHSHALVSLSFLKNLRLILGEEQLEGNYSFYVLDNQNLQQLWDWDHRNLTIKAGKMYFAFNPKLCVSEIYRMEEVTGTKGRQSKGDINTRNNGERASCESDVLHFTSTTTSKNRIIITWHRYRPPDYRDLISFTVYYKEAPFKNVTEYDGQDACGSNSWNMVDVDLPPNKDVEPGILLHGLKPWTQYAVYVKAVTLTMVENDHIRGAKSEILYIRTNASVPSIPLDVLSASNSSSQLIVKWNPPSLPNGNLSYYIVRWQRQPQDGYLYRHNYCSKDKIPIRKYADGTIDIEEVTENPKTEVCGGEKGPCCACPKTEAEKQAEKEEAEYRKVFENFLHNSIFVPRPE
T2 sequence (P08069 741-1367 partner limits assumed): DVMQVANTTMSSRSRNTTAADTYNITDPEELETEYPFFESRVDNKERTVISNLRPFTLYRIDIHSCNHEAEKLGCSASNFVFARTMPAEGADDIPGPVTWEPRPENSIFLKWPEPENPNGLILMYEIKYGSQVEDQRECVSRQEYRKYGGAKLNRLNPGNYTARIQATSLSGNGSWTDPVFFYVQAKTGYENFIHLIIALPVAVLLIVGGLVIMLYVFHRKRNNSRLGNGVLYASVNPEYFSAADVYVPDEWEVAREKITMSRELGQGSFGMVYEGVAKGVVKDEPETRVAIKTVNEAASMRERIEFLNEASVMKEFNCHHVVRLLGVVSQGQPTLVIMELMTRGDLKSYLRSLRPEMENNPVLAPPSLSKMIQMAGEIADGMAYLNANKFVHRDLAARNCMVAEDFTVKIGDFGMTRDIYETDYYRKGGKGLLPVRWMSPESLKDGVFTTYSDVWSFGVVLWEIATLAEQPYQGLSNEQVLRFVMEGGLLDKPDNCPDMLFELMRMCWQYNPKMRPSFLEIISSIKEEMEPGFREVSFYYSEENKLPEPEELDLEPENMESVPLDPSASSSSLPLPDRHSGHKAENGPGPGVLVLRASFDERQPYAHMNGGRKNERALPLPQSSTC

CC[C@H](C)[C@H](NC(=O)CN)C(=O)N[C@H](C(=O)N[C@@H](CC(=O)O)C(=O)N[C@@H](CCC(=O)O)C(=O)N[C@@H](CSCNC(C)=O)C(=O)N[C@@H](CSSC[C@H](NC(=O)[C@H](CC(C)C)NC(=O)[C@@H](NC(=O)[C@H](CCC(=O)O)NC(=O)[C@@H]1CCCN1C(=O)CN)[C@@H](C)O)C(=O)NCC(=O)N[C@@H](C)C(=O)N[C@@H](CCC(=O)O)C(=O)N[C@@H](CC(C)C)C(=O)N[C@H](C(=O)N[C@@H](CC(=O)O)C(=O)N[C@@H](C)C(=O)N[C@@H](CC(C)C)C(=O)N[C@@H](Cc1ccc(O)cc1)C(=O)N[C@@H](CC(C)C)C(=O)N[C@H](C(=O)N[C@@H](CSCNC(C)=O)C(=O)NCC(=O)N[C@@H](CC(=O)O)C(=O)N[C@@H](CCCNC(=N)N)C(=O)NCC(=O)N[C@@H](Cc1ccccc1)C(=O)N[C@@H](Cc1ccc(O)cc1)C(=O)N[C@@H](Cc1ccccc1)C(=O)N[C@@H](CC(N)=O)C(=O)N[C@@H](CCCCN)C(=O)N1CCC[C@H]1C(=O)N[C@H](C(N)=O)[C@@H](C)O)C(C)C)C(C)C)C(=O)N[C@@H](Cc1ccccc1)C(=O)N[C@@H](CCCNC(=N)N)C(=O)N[C@@H](CO)C(=O)N[C@@H](CSCNC(C)=O)C(=O)N[C@@H](CC(=O)O)C(=O)N[C@@H](CC(C)C)C(=O)N[C@@H](CCCNC(=N)N)C(=O)N[C@@H](CCCNC(=N)N)C(=O)N[C@@H](CC(C)C)C(=O)N[C@@H](CCC(=O)O)C(=O)N[C@@H](CCSC)C(=O)N[C@@H](Cc1ccc(NC(=O)[C@@H]2CCCN2C(=O)C(C)(C)N)cc1)C(=O)N[C@@H](CSCNC(C)=O)C(=O)N[C@@H](C)C(=O)O)C(C)C
Half Life [1]: 1.8 h

CC[C@H](C)[C@H](NC(=O)CN)C(=O)N[C@H](C(=O)N[C@@H](CC(=O)O)C(=O)N[C@@H](CCC(=O)O)C(=O)N[C@H]1CSSC[C@@H]2NC(=O)[C@H](CO)NC(=O)[C@H](CCCNC(=N)N)NC(=O)[C@H](Cc3ccccc3)NC(=O)[C@H](CSSC[C@H](NC(=O)[C@H](CC(C)C)NC(=O)[C@@H](NC(=O)[C@H](CCC(=O)O)NC(=O)[C@@H]3CCCN3C(=O)CN)[C@@H](C)O)C(=O)NCC(=O)N[C@@H](CO)C(=O)N[C@@H](Cc3c[nH]cn3)C(=O)N[C@@H](CC(C)C)C(=O)N[C@@H](C(C)C)C(=O)N[C@@H](CCC(=O)O)C(=O)N[C@@H](C)C(=O)N[C@@H](CC(C)C)C(=O)N[C@@H](Cc3ccc(O)cc3)C(=O)N[C@@H](CC(C)C)C(=O)N[C@@H](C(C)C)C(=O)N[C@H](C(=O)NCC(=O)N[C@@H](CC(=O)O)C(=O)N[C@@H](CCCNC(=N)N)C(=O)NCC(=O)N[C@@H](Cc3ccccc3)C(=O)N[C@@H](Cc3ccc(O)cc3)C(=O)N[C@@H](Cc3ccccc3)C(=O)N[C@@H](CC(N)=O)C(=O)N[C@@H](CCCCN)C(=O)N3CCC[C@H]3C(=O)N[C@H](C(N)=O)[C@@H](C)O)CSSC[C@@H](C(=O)N[C@@H](C)C(N)=O)NC(=O)[C@H](Cc3ccc(O)cc3)NC(=O)[C@H](CCSC)NC(=O)[C@H](CCC(=O)O)NC(=O)[C@H](CC(C)C)NC(=O)[C@H](CCCNC(=N)N)NC(=O)[C@H](CCCNC(=N)N)NC(=O)[C@H](CC(C)C)NC(=O)[C@H](CC(=O)O)NC2=O)NC1=O)C(C)C
Insulin Receptor % insulin (in test) (human insulin receptor): 19.1%
Insulin Receptor % native insulin activity (0.6 nM) (human insulin receptor): 37.7%
Ratio (human insulin receptor; IGF-1 receptor IC50 over insulin receptor IC50): 22.6
IGF-1 Receptor % IGF-1 (in test) (human IGF-1 receptor): 0.3%

CC[C@H](C)[C@H](NC(=O)CN)C(=O)N[C@H](C(=O)N[C@@H](CC(=O)O)C(=O)N[C@@H](CCC(=O)O)C(=O)N[C@H]1CSSC[C@@H]2NC(=O)[C@H](CO)NC(=O)[C@H](CCCNC(=N)N)NC(=O)[C@H](Cc3ccccc3)NC(=O)[C@H](CSSC[C@H](NC(=O)[C@H](CC(C)C)NC(=O)[C@@H](NC(=O)[C@H](CCC(=O)O)NC(=O)[C@@H]3CCCN3C(=O)CN)[C@@H](C)O)C(=O)NCC(=O)N[C@@H](C)C(=O)N[C@@H](CCC(=O)O)C(=O)N[C@@H](CC(C)C)C(=O)N[C@@H](C(C)C)C(=O)N[C@@H](CC(=O)O)C(=O)N[C@@H](C)C(=O)N[C@@H](CC(C)C)C(=O)N[C@@H](Cc3ccc(O)cc3)C(=O)N[C@@H](CC(C)C)C(=O)N[C@@H](C(C)C)C(=O)N[C@H](C(=O)NCC(=O)N[C@@H](CC(=O)O)C(=O)N[C@@H](CCCNC(=N)N)C(=O)NCC(=O)N[C@@H](Cc3ccccc3)C(=O)N[C@@H](Cc3ccc(O)cc3)C(=O)N[C@@H](Cc3ccccc3)C(=O)N[C@@H](CC(N)=O)C(=O)N[C@@H](CCCCN)C(=O)N3CCC[C@H]3C(=O)N[C@H](C(N)=O)[C@@H](C)O)CSSC[C@@H](C(=O)N[C@@H](C)C(=O)O)NC(=O)[C@H](Cc3ccc(NC(=O)[C@@H]4CCCN4C(=O)C(C)(C)N)cc3)NC(=O)[C@H](CCSC)NC(=O)[C@H](CCC(=O)O)NC(=O)[C@H](CC(C)C)NC(=O)[C@H](CCCNC(=N)N)NC(=O)[C@H](CCCNC(=N)N)NC(=O)[C@H](CC(C)C)NC(=O)[C@H](CC(=O)O)NC2=O)NC1=O)C(C)C [IGF1 B:A(pNH2-Phe)^A19]
Half Life [1]: 1.6 h
